In assay [1] the test system is Plasmodium falciparum parasites. As to the kind of experiment: standard hypoxanthine incorporation method in Plasmodium falciparum parasites. Format: cell-based. The conditions noted are these: read-out: IC50 (50% inhibitory concentration).
The subject of assay [2] is PEcΔTFP transformed with plasmids containing Pfdhfr-ts (WT) and Pfhppk-dhps (WT). As to the kind of experiment: growth inhibition of PEcΔTFP surrogate host (antifolate drug screening). Format: cell-based, Escherichia coli BL21(DE3). The settings on record: PEcΔTFP with wild type Pfdhfr-ts and Pfhppk-dhps, minimal media with L-arabinose, 37 degrees Celsius, 16 hours. The protocol:
(§1) Pyrimethamine and sulfathiazole were chosen for this experiment. The 50% inhibitory concentrations (IC50) of each drug were calculated from dose-response growth curves for PEcΔTFP and PEcΔTFPK surrogates transformed with plasmids containing wild type Pfdhfr-ts and Pfhppk-dhps. Cells were incubated in various concentrations of drug in minimal media supplemented with L-arabinose as an inducer and antibiotics for selection of complementing plasmids in 96-well plates at 37 degrees Celsius for 16 hours.

The test system of assay [3] is PEcΔTFPK transformed with plasmids containing Pfdhfr-ts (WT) and Pfhppk-dhps (WT). As to the kind of experiment: growth inhibition of PEcΔTFPK surrogate host (antifolate drug screening). The format is cell-based, Escherichia coli BL21(DE3). The conditions noted are these: PEcΔTFPK with wild type Pfdhfr-ts and Pfhppk-dhps, minimal media with L-arabinose, 37 degrees Celsius, 16 hours. The protocol:
as §1

This is an account of results in patent publication US10011842B2, “Escherichia coli cell line with thyA knockout, folA knockout, and one or both of folP knockout, and folK knockout” (priority 2013, dated 2018).

With `CCc1nc(N)nc(N)c1-c1ccc(Cl)cc1` [pyrimethamine], the IC50 in assay [1] turned out to be 0.041 ± 0.006 µM.
In the case of `Nc1ccc(S(=O)(=O)Nc2nccs2)cc1` [sulfathiazole], the IC50 in assay [1] came to 135.4 ± 0.49 µM. In addition, the “IC50 from dose-response growth curves compared with the standard method” value in assay [2] and in assay [3] was “very similar to values from the standard hypoxanthine incorporation method” in each case.
